Measurements reported in patent US20240285552A1 (priority 2020, published 2024).
Residues, ends and D or L forms follow the SMILES beside them. *: point of attachment. Cbz = O=C(OCc1ccccc1)*; CH2F = FC*

Tested on: B.1.617.2 Delta Variant of SARS-CoV-2
Test: microbe, parasite or virus in culture
Assay type: cell-based

## CC(C)C[C@H](NC(=O)OCc1ccccc1)C(=O)N[C@@H](CC(C)C)C(=O)N[C@@H](Cc1ccc(O)cc1)C(=O)CF [Calpain Inhibitor IV] (Cbz-Leu-Leu-Tyr-CH2F)
  Conc. at Max. % Inhibition: 0.45 µM
  Max. Inhibition: 105.43%
read-out: IC 50 against B.1.617.2 Delta Variant Infection-Induced CPE
  IC50: 124 nM
